Test results as given in the supplement of paper PMC11127212.

What was measured:
[1] = retention time on BEH HILIC column (20 min gradient, 0.4 mL/min); higher = later elution; details: LC: HILIC
Method: (§1)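 Reference standards (20-100 uM) were separated by HILIC UPLC (BEH HILIC, 45 °C): acidic pH 3.0 ammonium formate/formic acid for ESI+ and basic pH 9.0 ammonium acetate/ammonia for ESI-. They were analysed on a Synapt G2-Si traveling-wave IMS-QTOF with nitrogen drift gas (WH 30 V; WV 800 m/s in ESI+ and 1000 m/s in ESI-).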

[2] = collision cross section (TWIMS, N2) of ion [M-H]-; higher = larger gas-phase ion cross section; details: ionization: ESI negative; LC: HILIC, pH 9.0 ammonium acetate
Method: as §1

[3] = collision cross section (TWIMS, N2) of ion [M+Na]+; higher = larger gas-phase ion cross section; details: ionization: ESI positive; LC: HILIC, pH 3.0 ammonium formate
Method: as §1, with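 “ESI-). CCS (TWCCSN2, Å2) was calibrated with Major Mix IMS/TOF and LockCCS leucine enkephalin; inter-day RSD was <1%.” for “ESI-).”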

[4] = collision cross section (TWIMS, N2) of ion [M+H]+; higher = larger gas-phase ion cross section; details: ionization: ESI positive; LC: HILIC, pH 3.0 ammonium formate
Method: as §1

[5] = ionization: ESI negative, pH 9.0 ammonium acetate
[6] = ionization: ESI positive, pH 3.0 ammonium formate

Row | retention time on BEH HILIC column [1, 5] [min] | retention time on BEH HILIC column [1, 6] [min] | collision cross section [2] [Å²] | collision cross section [3] [Å²] | collision cross section [4] [Å²] | SMILES
1 | 3.16 | 3.12 | 126.54 | 133.34 | – | OC[C@@H](O)C(O)[C@H](O)CO [D-arabitol]
2 | 3.07 | 3.12 | 128.72 | 129.97 | – | O=C(O)c1ccc(CO)o1 [Sumiki's acid]
3 | 6.9 | 6.92 | 172.34 | 178.55 | 171.22 | Nc1nc2c(ncn2[C@@H]2O[C@@H]3COP(=O)(O)O[C@H]3[C@H]2O)c(=O)[nH]1 [cGMP]
4 | 5.92 | 5.84 | 133.54 | 146 | – | O[C@H]1[C@H](O)[C@@H](O)[C@H](O)[C@@H](O)[C@H]1O [myo-inositol]
5 | 5.43 | 3.87 | 132.14 | 140.11 | – | OC[C@H]1O[C@H](O)[C@@H](O)[C@@H](O)[C@@H]1O [D-mannose]
6 | 4.75 | 4.8 | 134.82 | 140.03 | – | OC[C@@H](O)[C@@H](O)[C@H](O)[C@H](O)CO [Mannitol]
7 | 1.58 | 1.71 | 121.34 | 131.78 | – | OC[C@H]1OC(O)[C@H](O)[C@@H]1O (stereo partly drawn) [D-ribose]
8 | 3.57 | 2.85 | 126.54 | 133.34 | – | OC[C@@H](O)[C@@H](O)[C@@H](O)CO [Ribitol]
9 | 3.16 | 3.16 | 128.01 | 133.34 | – | OC[C@@H](O)[C@H](O)[C@@H](O)CO [D-xylitol]
10 | 4.84 | 5.56 | 133.44 | 140.03 | – | OC[C@@H](O)[C@H](O)[C@H](O)[C@@H](O)CO [Galactitol]
11 | 4.6 | 4.7 | 133.44 | 140.03 | – | OC[C@@H](O)[C@@H](O)[C@H](O)[C@@H](O)CO [Sorbitol]
12 | 6.6 | 6.77 | 169.11 | 171.56 | – | OC[C@H]1O[C@@](CO)(O[C@H]2O[C@H](CO)[C@@H](O)[C@H](O)[C@H]2O)[C@@H](O)[C@@H]1O [Sucrose]
13 | 2.8 | 2.24 | 126.73 | 139.19 | – | O=C(O)/C=C(/CC(=O)O)C(=O)O [cis-aconitic]
14 | 2.23 | 2.23 | 118.87 | 138.79 | – | O=C(O)/C=C(\CC(=O)O)C(=O)O [trans-aconitic acid]
15 | 7.95 | 6.68 | 171.3 | 175.45 | – | OC[C@H]1O[C@H](O[C@H]2[C@H](O)[C@H](O)[C@@H](O)O[C@@H]2CO)[C@H](O)[C@@H](O)[C@@H]1O [D-maltose]
16 | 12.1 | 9.32 | 148.86 | 154.07 | – | O=P(O)(O)OC[C@H]1OC(O)[C@H](O)[C@@H](O)[C@@H]1O (some centres not stated) [Glucose 6-phosphate]
17 | 6.83 | 6.7 | 171.26 | 174.13 | – | OC[C@@H](O)[C@@H](O[C@H]1O[C@H](CO)[C@@H](O)[C@H](O)[C@H]1O)[C@H](O)[C@@H](O)CO [Maltitol]

Further lines, the molecule ahead of its results:

Row | SMILES | retention time on BEH HILIC column [1, 5] [min] | retention time on BEH HILIC column [1, 6] [min] | collision cross section [2] [Å²] | collision cross section [3] [Å²] | collision cross section [4] [Å²]
18 | CCCCCCCCCC(=O)O [Capric acid] | 0.75 | 0.75 | 151.28 | 143.53 | –
19 | CCCCCCCCCCCCCCCCCCCC(=O)O [Arachidic acid] | 0.73 | 0.79 | 193.88 | 198.31 | –
20 | CCCCCCC(=O)O [Heptanoic acid] | 0.9 | 0.77 | 135.55 | 134.35 | –
21 | N[C@@H](Cc1ccc(O)cc1)C(=O)O [L-tyrosine] | 6.79 | 6.67 | 141.65 | 143.2 | 141.09
22 | CCCCCCCCCCCCCCCCCCCCCC(=O)O [Behenic acid] | 0.73 | 0.82 | 197.18 | 204.26 | –
23 | O=C(O)c1cccnc1 [Nicotinic acid] | 2.74 | 2.74 | 121.16 | 128.31 | 122.92
24 | C[N+](C)(C)CC(=O)O [Betaine] | – | 7.16 | – | 132.22 | 125.33
25 | NC(=O)NC1NC(=O)NC1=O (configuration not stated) [Allantoin] | 1.8 | 1.56 | 126.16 | 136.32 | –
26 | Nc1ncnc2nc[nH]c12 [Adenine] | 2.71 | 2.59 | 126.29 | 134.02 | 125.13
27 | O=C[C@H](O)COP(=O)(O)O [D-glyceraldehyde 3-phosphate] | 12.1 | 11.6 | 131.08 | 137.94 | –
28 | NCCC(=O)N[C@@H](Cc1cnc[nH]1)C(=O)O [Carnosine] | 11.7 | 11.8 | 154.88 | 152.28 | 151.65
29 | COc1cc(/C=C/C(=O)O)ccc1O [trans-ferulic acid] | 0.9 | 0.93 | 143.64 | 161.96 | –
30 | CC(=O)Oc1ccc(O)cc1 [4-hydroxyphenyl acetate] | 0.67 | 0.88 | 129.47 | 138.25 | –
31 | O=C(O)CNC(=O)c1ccccc1 [Hippuric acid] | 2.21 | 2.16 | 139.07 | 146.37 | 138.49
32 | CCCCC/C=C\C/C=C\CCCCCCCC(=O)O [Linoleic acid] | 0.73 | 0.75 | 179.98 | 174.95 | –
33 | CCCCCC(=O)O [Caproic acid] | 0.9 | 1.25 | 129.59 | 130.13 | –
34 | CCOC(=O)CC(C)C(=O)OCC (configuration not stated) [Diethyl methylsuccinate] | 0.95 | 0.75 | 139.96 | 151.23 | –
35 | CCCCCCCCCCCCCCCC(=O)O [Palmitic acid] | 0.77 | 0.72 | 170.14 | 179.96 | –
36 | CCCCCCCCCCCCCCCCCC(=O)O [Stearic acid] | 0.73 | 0.75 | 184.42 | 186.65 | –
37 | CCCCCCCCCCCCCCCCCCC(=O)O [Nonadecanoic acid] | 0.73 | 0.77 | 188.17 | 190.13 | –
38 | O=C(O)CCCCCCCC(=O)O [Azelaic acid] | 0.8 | 1 | 139.96 | 145.99 | –
